The pIC50 is the IC50 on a negative log10 scale, so that one unit is a factor of ten.

This assay addresses T1, JAK3 (Homo sapiens, UniProt P52333).
T1 construct: endogenous in cells
T1 sequence (P52333 1-1124): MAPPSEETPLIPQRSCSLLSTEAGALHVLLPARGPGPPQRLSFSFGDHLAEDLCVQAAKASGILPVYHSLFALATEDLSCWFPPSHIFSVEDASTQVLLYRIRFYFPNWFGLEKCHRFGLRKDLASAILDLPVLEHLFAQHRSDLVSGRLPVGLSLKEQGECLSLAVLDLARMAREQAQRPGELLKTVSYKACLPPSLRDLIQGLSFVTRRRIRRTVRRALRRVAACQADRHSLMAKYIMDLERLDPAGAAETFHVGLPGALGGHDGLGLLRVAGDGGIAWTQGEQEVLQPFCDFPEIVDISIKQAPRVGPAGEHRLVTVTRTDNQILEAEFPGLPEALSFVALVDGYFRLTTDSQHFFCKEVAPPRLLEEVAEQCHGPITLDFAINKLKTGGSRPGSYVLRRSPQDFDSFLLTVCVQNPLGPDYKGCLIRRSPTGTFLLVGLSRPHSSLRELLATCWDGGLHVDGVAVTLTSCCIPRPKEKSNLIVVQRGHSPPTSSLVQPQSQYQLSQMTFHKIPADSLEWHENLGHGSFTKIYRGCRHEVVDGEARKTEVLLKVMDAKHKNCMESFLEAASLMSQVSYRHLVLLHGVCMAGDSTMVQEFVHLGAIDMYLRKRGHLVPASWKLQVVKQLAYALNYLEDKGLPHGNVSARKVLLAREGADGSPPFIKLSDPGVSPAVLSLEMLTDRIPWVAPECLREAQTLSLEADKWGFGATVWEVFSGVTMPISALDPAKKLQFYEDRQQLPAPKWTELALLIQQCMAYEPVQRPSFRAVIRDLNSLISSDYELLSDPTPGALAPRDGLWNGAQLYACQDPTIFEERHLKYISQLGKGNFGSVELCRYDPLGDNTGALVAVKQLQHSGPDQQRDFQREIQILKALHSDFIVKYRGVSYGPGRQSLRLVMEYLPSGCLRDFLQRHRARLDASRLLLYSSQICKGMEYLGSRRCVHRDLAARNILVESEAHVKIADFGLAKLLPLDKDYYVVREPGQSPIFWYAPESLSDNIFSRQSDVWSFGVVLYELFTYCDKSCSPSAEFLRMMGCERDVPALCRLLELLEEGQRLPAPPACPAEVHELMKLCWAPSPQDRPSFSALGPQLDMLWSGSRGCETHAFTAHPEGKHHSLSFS
The assay is described as follows: JAK3 kinobeads assay. Type of assay: binding. As to conditions: cell lysate, dot blot with JAK3 specific antibody. How it is done: The compounds of the present invention as described in the previous examples were tested in the ZAP-70 kinobeads assay as described (EP-A 1862802 and WO-A 2007/137867). Briefly, test compounds (at various concentrations) and the affinity matrix with the immobilized aminopyrido-pyrimidine ligand 24 are added to cell lysate aliquots and allowed to bind to the proteins in the lysate sample. After the incubation time the beads with captured proteins are separated from the lysate. Bound proteins are then eluted and the presence ZAP-70 is detected and quantified using a specific antibody in a dot blot procedure and the Odyssey infrared detection system.
Compounds were tested by the procedure described in Example 102 but using a JAK3 specific antibody (Cell Signaling Technology, Inc., Danvers, US, catalogue number 3775) instead of a ZAP70 antibody.

pIC50: −log10 of the molar value.

`COc1ccc(Nc2nc(Nc3ccn(C(C)C)n3)ncc2F)c(NS(C)(=O)=O)c1` [Example 48, N-(2-((5-fluoro-2-((1-isopropyl-1H-pyrazol-3-yl)amino)pyrimidin-4-yl)amino)-5-methoxyphenyl)methanesulfonamide] gave a pIC50 of 6.00 to 7.00. With `Cn1nc(Nc2ncc(Cl)c(Nc3ccccc3NS(C)(=O)=O)n2)cc1C(=O)O` [Example 92, 3-((5-chloro-4-((2-(methylsulfonamido)phenyl)amino)pyrimidin-2-yl)amino)-1-methyl-1H-pyrazole-5-carboxylic acid] the figure was no less than 7.00. The value for `Cc1cc(Nc2ncc(Cl)c(Nc3ccccc3NS(C)(=O)=O)n2)nn1CC(F)(F)F` [Example 83, N-(2-((5-chloro-2-((5-methyl-1-(2,2,2-trifluoroethyl)-1H-pyrazol-3-yl)amino)pyrimidin-4-yl)amino)phenyl)methanesulfonamide] was 6.00 to 7.00; that for `CCCn1ccc(Nc2ncc(Cl)c(Nc3cccc(F)c3NS(C)(=O)=O)n2)n1` [Example 79, N-(2-((5-chloro-2-((1-propyl-1H-pyrazol-3-yl)amino)pyrimidin-4-yl)amino)-6-fluorophenyl)methanesulfonamide] was 6.00 to 7.00. The compound `CCS(=O)(=O)Nc1ccccc1Nc1nc(Nc2cnn(C)c2)ncc1F` [Example 62, N-(2-((5-fluoro-2-((1-methyl-1H-pyrazol-4-yl)amino)pyrimidin-4-yl)amino)phenyl)ethanesulfonamide] had a pIC50 of 6.00 to 7.00. As for `Cc1cc(Nc2ncc(F)c(Nc3ccccc3NS(C)(=O)=O)n2)nn1CC(F)(F)F` [Example 75, N-(2-((5-fluoro-2-((5-methyl-1-(2,2,2-trifluoroethyl)-1H-pyrazol-3-yl)amino)pyrimidin-4-yl)amino)phenyl)methanesulfonamide], the pIC50 was 5.00 to 6.00. `COc1ccc(Nc2nc(Nc3cc(C)n(C)n3)ncc2F)c(NS(C)(=O)=O)c1` [Example 47, N-(2-((2-((1,5-dimethyl-1H-pyrazol-3-yl)amino)-5-fluoropyrimidin-4-yl)amino)-5-methoxyphenyl)methanesulfonamide] gave a pIC50 of 6.00 to 7.00.

`CCn1nc(Nc2ncc(Cl)c(Nc3cccc(F)c3NS(C)(=O)=O)n2)cc1C` [Example 91, N-(2-((5-chloro-2-((1-ethyl-5-methyl-1H-pyrazol-3-yl)amino)pyrimidin-4-yl)amino)-6-fluorophenyl)methanesulfonamide] gave a pIC50 of no less than 7.00.

In turn, `CS(=O)(=O)Nc1ccccc1Nc1nc(Nc2cnn(CC(F)F)c2)ncc1F` [Example 85, N-(2-((2-((1-(2,2-difluoroethyl)-1H-pyrazol-4-yl)amino)-5-fluoropyrimidin-4-yl)amino)phenyl)methanesulfonamide] gave a pIC50 of no less than 7.00. With `COc1ccc(Nc2nc(Nc3cc(C4CC4)nn3C)ncc2Cl)c(NS(C)(=O)=O)c1` [Example 9, N-(2-(5-chloro-2-(3-cyclopropyl-1-methyl-1H-pyrazol-5-ylamino)pyrimidin-4-ylamino)-5-methoxyphenyl)methanesulfonamide] the figure was 6.00 to 7.00; with `CCS(=O)(=O)Nc1ccccc1Nc1nc(Nc2cc(C)n(C)n2)ncc1F` [Example 61, N-(2-((2-((1,5-dimethyl-1H-pyrazol-3-yl)amino)-5-fluoropyrimidin-4-yl)amino)phenyl)ethanesulfonamide], 5.00 to 6.00; with `Cn1ccc(Nc2ncc(Cl)c(Nc3cccc(F)c3NS(C)(=O)=O)n2)n1` [Example 70, N-(2-((5-chloro-2-((1-methyl-1H-pyrazol-3-yl)amino)pyrimidin-4-yl)amino)-6-fluorophenyl)methanesulfonamide], no less than 7.00. The value for `Cn1cc(Nc2ncc(Cl)c(Nc3cccc(F)c3NS(C)(=O)=O)n2)cn1` [Example 89, N-(2-((5-chloro-2-((1-methyl-1H-pyrazol-4-yl)amino)pyrimidin-4-yl)amino)-6-fluorophenyl)methanesulfonamide] was no less than 7.00; that for `CCCn1ccc(Nc2ncc(Cl)c(Nc3ccccc3NS(C)(=O)=O)n2)n1` [Example 46, N-(2-((5-chloro-2-((1-propyl-1H-pyrazol-3-yl)amino)pyrimidin-4-yl)amino)phenyl)methanesulfonamide] was no less than 7.00.

`Cc1cc(Nc2ncc(Cl)c(Nc3cccc(F)c3NS(C)(=O)=O)n2)nn1C` [Example 78, N-(2-((5-chloro-2-((1,5-dimethyl-1H-pyrazol-3-yl)amino)pyrimidin-4-yl)amino)-6-fluorophenyl)methanesulfonamide] showed a pIC50 of 6.00 to 7.00. With `Cn1cc(Nc2ncc(Cl)c(Nc3ccccc3NS(=O)(=O)C3CC3)n2)cn1` [Example 58, N-(2-((5-chloro-2-((1-methyl-1H-pyrazol-4-yl)amino)pyrimidin-4-yl)amino)phenyl)cyclopropanesulfonamide] the figure was no less than 7.00; with `COCCn1cc(Nc2ncc(Cl)c(Nc3ccccc3NS(C)(=O)=O)n2)cn1` [Example 52, N-(2-((5-chloro-2-((1-(2-methoxyethyl)-1H-pyrazol-4-yl)amino)pyrimidin-4-yl)amino)phenyl)methanesulfonamide], no less than 7.00. `COc1ccc(Nc2nc(Nc3cc(C(C)(C)C)nn3C)ncc2Cl)c(NS(C)(=O)=O)c1` [Example 10, N-(2-(2-(3-tert-butyl-1-methyl-1H-pyrazol-5-ylamino)-5-chloropyrimidin-4-ylamino)-5-methoxyphenyl)methanesulfonamide]: the negative logarithm of the IC50 (pIC50) is 5.00 to 6.00. Compound `Cc1cc(Nc2ncc(Cl)c(Nc3ccccc3NS(=O)(=O)C3CC3)n2)nn1C` [Example 55, N-(2-((5-chloro-2-((1,5-dimethyl-1H-pyrazol-3-yl)amino)pyrimidin-4-yl)amino)phenyl)cyclopropanesulfonamide] had a negative logarithm of the IC50 (pIC50) of 6.00 to 7.00. In turn, `COc1nn(CC(F)F)cc1Nc1ncc(F)c(Nc2ccccc2NS(C)(=O)=O)n1` [Example 73, N-(2-((2-((1-(2,2-difluoroethyl)-3-methoxy-1H-pyrazol-4-yl)amino)-5-fluoropyrimidin-4-yl)amino)phenyl)methanesulfonamide] showed a pIC50 of 6.00 to 7.00. `CCNC(=O)c1cc(Nc2ncc(Cl)c(Nc3ccccc3NS(C)(=O)=O)n2)nn1C` [Example 100, 3-((5-chloro-4-((2-(methylsulfonamido)phenyl)amino)pyrimidin-2-yl)amino)-N-ethyl-1-methyl-1H-pyrazole-5-carboxamide] showed a pIC50 of no less than 7.00.

Compound `CS(=O)(=O)Nc1ccccc1Nc1nc(Nc2cn[nH]c2)ncc1Cl` [Example 25, N-(2-(2-(1H-pyrazol-4-ylamino)-5-chloropyrimidin-4-ylamino)phenyl)methanesulfonamide] gave a pIC50 of no less than 7.00. Compound `CCS(=O)(=O)Nc1ccccc1Nc1nc(Nc2ccn(C)n2)ncc1F` [Example 63, N-(2-((5-fluoro-2-((1-methyl-1H-pyrazol-3-yl)amino)pyrimidin-4-yl)amino)phenyl)ethanesulfonamide] gave a pIC50 of 5.00 to 6.00. As to `CCS(=O)(=O)Nc1ccccc1Nc1nc(Nc2ccn(C)n2)ncc1Cl` [Example 56, N-(2-((5-chloro-2-((1-methyl-1H-pyrazol-3-yl)amino)pyrimidin-4-yl)amino)phenyl)ethanesulfonamide], the pIC50 is 6.00 to 7.00. With `CNC(=O)c1cc(Nc2ncc(Cl)c(Nc3ccccc3NS(C)(=O)=O)n2)nn1C` [Example 97, 3-((5-chloro-4-((2-(methylsulfonamido)phenyl)amino)pyrimidin-2-yl)amino)-N,1-dimethyl-1H-pyrazole-5-carboxamide] the figure was no less than 7.00; with `CC(C)n1ccc(Nc2ncc(Br)c(Nc3ccccc3NS(C)(=O)=O)n2)n1` [Example 49, N-(2-((5-bromo-2-((1-isopropyl-1H-pyrazol-3-yl)amino)pyrimidin-4-yl)amino)phenyl)methanesulfonamide], no less than 7.00; with `Cc1nn(CC(F)F)cc1Nc1ncc(F)c(Nc2ccccc2NS(C)(=O)=O)n1` [Example 72, N-(2-((2-((1-(2,2-difluoroethyl)-3-methyl-1H-pyrazol-4-yl)amino)-5-fluoropyrimidin-4-yl)amino)phenyl)methanesulfonamide], 6.00 to 7.00.

The values above are taken from US20120172384A1, “HETEROCYCLYLAMINOPYRIMIDINES AS KINASE INHIBITORS” (priority 2009, published 2012).
